Measurements: patent US20030134303A1, “Adenine nucleotide-binding protein-directed probes, and methods of their synthesis and use” (ActivX Biosciences, Inc,, priority 2001, published 2003)

How the values were obtained:
Type in all cases: binding
[1] = target: EGF receptor tyrosine kinase (Homo sapiens, UniProt P00533); assay: Effect of inhibitors on EGF receptor tyrosine kinase labeling by ANBP (5) in A431 plasma membranes; details: inhibitor 50 μM, 5 minutes pretreatment, then AX0231 20 μM for 60 minutes; compared with 90% by the EGF inhibitor at 5 μM
Procedure: After 60 minutes, the reaction was quenched by the addition of gel sample buffer. The samples were electrophoresed on a 10% SDS-PAGE gel. The gel was then scanned on a FMBIO2 gel scanner, and the intensity of labeling of the EGFR was quantitated by ImageAnalysis.

[2] = target: T1, epidermal growth factor receptor (EGFR) (Homo sapiens, UniProt P00533); assay: EGF receptor tyrosine kinase labeling in A431 plasma membranes, MS identification of labeled peptide; details: probe 20 μM, 3 hours, solubilized A431 plasma membranes, anti-TAMRA capture, trypsin
T1 construct: Plasma membranes containing the epidermal growth factor receptor (EGFR) were prepared from the A431 human epidermoid cancer cell line; endogenous in cells; host or cells: A431 human epidermoid cancer cells (plasma membrane preparation, Triton X-100 solubilized)
Procedure: Plasma membranes containing the epidermal growth factor receptor (EGFR) were prepared from the A431 human epidermoid cancer cell line. Approximately 1×10^8 A431 cells were resuspended in 10 mls 20 mM HEPES, pH 7.5, 0.14M NaCl, 5 mM KCl, 0.1 mM EDTA, 0.1% glucose, and 0.035% sodium bicarbonate. The cells were lysed by Dounce homogenization, and the lysate was diluted into 80 mls of 20 mM sodium borate, pH 10.2, 0.1 mM EDTA. This mixture was placed on a rocker at 4° C. for 10 minutes, and the membranes from the mixture were isolated by centrifugation at 16,000 rpm for 30 minutes in a Beckman JA17 rotor. The plasma membranes were further purified by centrifugation over a 40%/30% sucrose cushion at 30000 rpm for 60 minutes in a Beckman MLS 50 swinging bucket rotor. The plasma membranes were collected at the aqueous—sucrose interface, and solubilized in buffer containing 20 mM HEPES, pH 7.5, 50 mM NaCl, 20 mM MgCl2, 0.05 mg/ml BSA, and 0.1% Triton-X-100.
Solubilized A431 plasma membranes (˜0.5 mg total protein) were incubated with (5)(20 μM) for 3 hours. […]
The proteins in this band were trypsinized, and the tryptic peptides were extracted. […] After elution from the beads the captured fragment was analyzed by mass spectroscopy (MS) to identify the peptide sequence: […]

[3] = target: T2, GST-fusion protein of the insulin receptor kinase domain (GST-InsRK) (Homo sapiens, UniProt P06213)
T2 construct: GST-fusion protein of the insulin receptor kinase domain (GST-InsRK)
T2 sequence (P06213 1023-1298 limits assumed): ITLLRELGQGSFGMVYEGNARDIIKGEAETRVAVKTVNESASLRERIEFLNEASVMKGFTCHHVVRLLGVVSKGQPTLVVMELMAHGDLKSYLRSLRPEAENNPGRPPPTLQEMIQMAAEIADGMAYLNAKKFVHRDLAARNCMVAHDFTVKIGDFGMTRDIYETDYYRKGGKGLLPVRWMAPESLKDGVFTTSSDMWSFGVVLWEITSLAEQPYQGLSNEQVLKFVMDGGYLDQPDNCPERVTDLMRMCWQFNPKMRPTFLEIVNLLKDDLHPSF

Row | inhibition of probe labeling of EGFR [1] | Molecule | site of labeling in EGFR (probe-labeled tryptic peptide, K*) [2] | labeling of GST-InsRK by probe [3]
1 | significantly less inhibition | COC(=O)c1ccc(NCc2cc(O)ccc2O)cc1 [AG957] |  | 
2 |  | 5′-FSB-amido-2′(3′)-(2-TAMRA-amidoethylcarbamoyl)adenosine [Compound 5] | located within the active site of the protein | labeled
